Reference: PubChem BioAssay (NCI)
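1) Cells in 96-well plates. 2) Compound, 48 h, 5 concentrations. 3) Linear interpolation between surrounding doses. 4) Unreached endpoint = highest concentration. TGI is the concentration that stops growth completely.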

What was measured:
Experiment in all cases: NCI-60 cell line screen, 48 h
IGROV1 ovarian = test system: IGROV1 ovarian
NCI-H522 lung = test system: NCI-H522 lung
COLO 205 colon = test system: COLO 205 colon
SNB-75 CNS = test system: SNB-75 CNS
786-0 renal = test system: 786-0 renal
SF-539 CNS = test system: SF-539 CNS
DU-145 prostate = test system: DU-145 prostate
TK-10 renal = test system: TK-10 renal
SK-OV-3 ovarian = test system: SK-OV-3 ovarian
T-47D breast = test system: T-47D breast

| Structure (SMILES) | TGI (IGROV1 ovarian) | TGI (NCI-H522 lung) | TGI (COLO 205 colon) | TGI (SNB-75 CNS) | TGI (786-0 renal) | TGI (SF-539 CNS) | TGI (DU-145 prostate) | TGI (TK-10 renal) | TGI (SK-OV-3 ovarian) | TGI (T-47D breast) |
| --- | --- | --- | --- | --- | --- | --- | --- | --- | --- | --- |
| CC1=CC(C)(C)Nc2ccc(CSc3ccccc3)cc21 | > 100 µM | 46.5 µM | 52.8 µM | 51.3 µM | 72.1 µM | > 100 µM | 71.5 µM | > 100 µM | 90.1 µM |  |
| CC(C)(C)NC(=O)C12C3C4C1C1C2C3C41C(=O)NC(C)(C)C (stereo unspecified) | > 100 µM | > 100 µM | > 100 µM |  | > 100 µM | > 100 µM | > 100 µM | > 100 µM |  | > 100 µM |
| O=C(O)CCC(NC(=O)c1ccc(CNc2nc3ccccc3nc2C(=O)O)cc1)C(=O)O (stereo unspecified) | > 100 µM |  | > 100 µM | > 100 µM | > 100 µM |  | > 100 µM | > 100 µM | > 100 µM |  |
| C=CCc1cccc(/C=N\N=C(/N)NO)c1O | > 74.9 µM | 10.6 µM | > 29.7 µM | 25.9 µM |  | 6.81 µM |  |  | 32.5 µM |  |
| BrCC(Br)(c1ccccc1)c1ccccc1-c1cc(-c2ccccc2)cc(-c2ccccc2)n1 (stereo unspecified) | 19.4 µM | 10.5 µM | 2.81 µM | 4.08 µM | 13.8 µM | 19 µM | > 45.5 µM | 21.5 µM |  |  |
| COc1cc2c(c(OC(C)=O)c1OC(C)=O)-c1ccc(SC)c(=O)cc1C(NC(C)=O)CC2 (stereo unspecified) | > 100 µM | 1.2 µM | 3.13 µM |  | > 100 µM | 1.64 µM |  | > 100 µM | > 36 µM |  |
| C=C1CC(COc2ccc3c(C)cc(=O)oc3c2)(c2ccccc2)OC1=O (stereo unspecified) | 3.57 µM | 3.37 µM | 2.76 µM | 19.2 µM | 2.79 µM | 5.05 µM | 6.68 µM | 3.42 µM | 14.9 µM |  |
| CC(=O)O[C@@H]1O[Si](C(C)(C)C)(C(C)(C)C)[C@H](C)[C@H]1C | > 100 µM | > 100 µM | > 100 µM | > 100 µM | > 100 µM | > 100 µM |  | > 100 µM | > 100 µM | > 100 µM |
| COc1ccc(N2C(=O)/C(=C\c3cccc(Oc4ccccc4)c3)SC2c2ccccc2)cc1 (stereo unspecified) |  | 58.9 µM | > 100 µM |  | > 100 µM | 55.9 µM | > 100 µM | > 100 µM | > 100 µM | > 100 µM |
| O=C1CN(c2ccc(Cl)cc2)C(=O)CN1NCNN1CC(=O)N(c2ccc(Cl)cc2)CC1=O | > 100 µM | > 100 µM | > 100 µM | > 100 µM | > 100 µM | > 100 µM | > 100 µM | > 100 µM | > 100 µM |  |
| CCN(CC)CCNc1ccc2nnn3c4ccccc4c(=O)c1c23 | 58.8 µM | 16.4 µM | 16.2 µM | 11.9 µM | 20.7 µM | 19.6 µM |  | 22.9 µM | 62.5 µM |  |
| CCOC(=O)NC(=S)c1ccc(O)c2ccccc12 | 49.1 µM | > 100 µM | > 100 µM |  | > 100 µM | > 100 µM | > 100 µM |  | > 100 µM | > 100 µM |
| Cc1c2c(ccc3ccccc32)c[n+]2ccccc12 |  | 18.8 µM | 33.7 µM | 8.94 µM | > 100 µM | 33.2 µM |  | > 100 µM |  |  |
| O=C(O)c1nccnc1C(=O)O | > 100 µM | > 100 µM | > 100 µM | > 100 µM | > 100 µM | > 100 µM |  | > 100 µM | > 100 µM |  |
| CC(=O)Oc1c2oc3cc(O)c(O)cc3c2c(OC(C)=O)c2oc3cc(O)c(O)cc3c12 | 91.1 µM | 35.8 µM | 33.5 µM | 57.6 µM | > 100 µM | 53.3 µM |  | 32.9 µM | 59.4 µM |  |
| [O-][n+]1c(-c2ccccc2)c2nc3ccccc3nc2c2ccccc21 | > 100 µM | > 100 µM | > 100 µM | 99 µM | > 100 µM | > 100 µM |  | > 100 µM | > 100 µM |  |
| Cc1ccc(-c2cc(-c3c(C)nn(C)c(=O)c3N)[nH]n2)cc1 | > 100 µM |  | > 100 µM |  | > 100 µM | > 100 µM | > 100 µM | > 100 µM | > 100 µM | > 100 µM |
| CC(O[Si](c1ccccc1)(c1ccccc1)C(C)(C)C)[C@H](NC(=O)OC(C)(C)C)C(=O)O (stereo partly specified) | 50.2 µM |  | 46.1 µM | > 100 µM | > 100 µM |  |  | > 100 µM | > 100 µM | > 100 µM |
| N#Cc1c(N)c(C#N)c2c(c1-c1ccc(Cl)cc1)COc1ccccc1-2 | 66.5 µM |  | > 100 µM |  | 15.1 µM | 49.1 µM | 68.6 µM | 36.1 µM | 36.9 µM | 58.2 µM |
| CC(=O)N/C(=C\c1ccc(/C=C(\NC(C)=O)C2=NC3C(=O)c4ccccc4C(=O)C3N2)cc1)C1=NC2C(=O)c3ccccc3C(=O)C2N1 (stereo unspecified) | > 100 µM | > 100 µM | > 100 µM | 76.2 µM |  | > 100 µM |  | 69.3 µM | > 100 µM |  |
